# Assay results as given in patent US20230192617A1, “AZABICYCLIC(THIO)AMIDES AS FUNGICIDAL COMPOUNDS” (Bayer CropScience Aktiengesellschaft, priority 2020, published 2023).
# What was measured:
# [1] = Measurement of Log P values by HPLC on reversed phase columns (EEC directive 79/831 Annex V.A8); format: physicochemical; conditions: reversed phase HPLC column, method [a]: LC-UV, acidic range, 0.1% formic acid in water and acetonitrile as eluent
# In short: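 Log P derived from retention on reversed-phase columns (EEC directive 79/831 Annex V.A8), LC-UV, acetonitrile gradient 10% to 95% against water containing 0.1% formic acid, 0.001 M ammonium acetate, or 0.1% phosphoric acid; several values per method separated by "+".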
# [2] = tested on: Sphaerotheca fuliginea; test: In vivo preventive test on Sphaerotheca fuliginea (powdery mildew on cucurbits); conditions: Podosphaera fuliginea, 192 h; 500 ppm of active ingredient; preventive spray on gherkin; evaluated 8 days after inoculation; read-out: efficacy
# Protocol: B-4. in vivo preventive test on Sphaerotheca fuliginea (powdery mildew on cucurbits) [table] The active ingredients were made soluble and homogenized in a mixture of Dimethyl sulfoxide/Acetone/Tween® 80 and then diluted in water to the desired concentration. The young plants of gherkin were treated by spraying the active ingredient prepared as described above. Control plants were treated only with an aqueous solution of Acetone/Dimethyl sulfoxide/Tween® 80. After 24 hours, the plants were contaminated by spraying the leaves with an aqueous suspension of Sphaerotheca fuliginea spores. The contaminated gherkin plants were incubated for 8 days at 20° C. and at 70-80% relative humidity.
# [3] = tested on: Colletotrichum lindemuthianum; test: B-8. Colletotrichum lindemuthianum in vitro cell test; format: cell-based; conditions: 144 h, 20 ppm of active ingredient, 6 days incubation, liquid culture, absorbance, read-out: efficacy (inhibition of fungal growth)
# In short: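 Liquid-culture germination/growth test: compounds in ≤1% final DMSO were added to spore-containing medium. Fungal growth was quantified spectrophotometrically after 6 days of incubation and expressed as inhibition versus untreated controls.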
# [4] = tested on: Alternaria brassicae; test: In vivo preventive test on Alternaria brassicae (leaf spot on radish or cabbage); conditions: 500 ppm of active ingredient, preventive spray on radish or cabbage, evaluated 3 to 4 days after inoculation, read-out: efficacy
# Protocol: B-1. In Vivo Preventive Test on Alternaria brassicae (Leaf Spot on Radish or Cabbage) [table] The active ingredients were made soluble and homogenized in a mixture of Dimethyl sulfoxide/Acetone/Tween® 80 and then diluted in water to the desired concentration. The young plants of radish or cabbage were treated by spraying the active ingredient prepared as described above. Control plants were treated only with an aqueous solution of Acetone/Dimethyl sulfoxide/Tween® 80. After 24 hours, the plants were contaminated by spraying the leaves with an aqueous suspension of Alternaria brassicae spores. The contaminated radish or cabbage plants were incubated for 3 to 4 days at 20° C. and at 100% relative humidity.
# [5] = tested on: Botrytis cinerea; test: In vivo preventive test on Botrytis cinerea (grey mould); conditions: 500 ppm of active ingredient, preventive spray on gherkin or cabbage, evaluated 4 to 5 days after inoculation, read-out: efficacy
# Protocol: B-2. In Vivo Preventive Test on Botrytis cinerea (Grey Mould) [table] The active ingredients were made soluble and homogenized in a mixture of Dimethyl sulfoxide/Acetone/Tween® 80 and then diluted in water to the desired concentration. The young plants of gherkin or cabbage were treated by spraying the active ingredient prepared as described above. Control plants were treated only with an aqueous solution of Acetone/Dimethyl sulfoxide/Tween® 80. After 24 hours, the plants were contaminated by spraying the leaves with an aqueous suspension of Botrytis cinerea spores. The contaminated gherkin plants were incubated for 4 to 5 days at 17° C. and at 90% relative humidity. The contaminated cabbage plants were incubated for 4 to 5 days at 20° C. and at 100% relative humidity.
# [6] = tested on: Alternaria alternata; test: Alternaria alternata in vitro cell test; format: cell-based; conditions: 120 h, 20 ppm of active ingredient, liquid culture, 5 days incubation, spectrometric measurement of mycelium growth, read-out: efficacy (inhibition of fungal growth)
# Protocol: (§1) B-6. Alternaria alternata In Vitro Cell Test [table] Fungicides were solubilized in DMSO and the solution used to prepare the required range of concentrations. The final concentration of DMSO used in the assay was ≤1%. A spore suspension of A. alternata was prepared and diluted to the desired spore density. Fungicides were evaluated for their ability to inhibit spore germination and mycelium growth in liquid culture assay. The compounds were added in the desired concentration to the culture medium with spores. After 5 days incubation, fungi-toxicity of compounds was determined by spectrometric measurement of mycelium growth. Inhibition of fungal growth was determined by comparing the absorbance values in wells containing the fungicides with the absorbance in control wells without fungicides.
# [7] = tested on: Pyrenophora teres; test: B-10. Pyrenophora teres in vitro cell test; format: cell-based; conditions: 144 h, 20 ppm of active ingredient, 6 days incubation, liquid culture, absorbance, read-out: efficacy (inhibition of fungal growth)
# Protocol: as §1, with “B-10. Pyrenophora teres” for “B-6. Alternaria alternata”, “P. teres” for “A. alternata”, “6” for “5”
# [8] = tested on: Botrytis cinerea; test: B-11. Botrytis cinerea in vitro cell test; format: cell-based; conditions: 144 h, 20 ppm of active ingredient, 6 days incubation, liquid culture, absorbance, read-out: efficacy (inhibition of fungal growth)
# Protocol: as §1, with “B-11. Botrytis cinerea” for “B-6. Alternaria alternata”, “B. cinerea” for “A. alternata”, “6” for “5”
chromatographic logP [1],SMILES,pest or weed control at 500 ppm [2],inhibition at 20 ppm [3],pest or weed control at 500 ppm [4],pest or weed control at 500 ppm [5],inhibition at 20 ppm [6],inhibition at 20 ppm [7],inhibition at 20 ppm [8]
5.17,Cc1ccc(C(F)(F)CNC(=S)c2c(Oc3cccc(C(F)(F)F)c3)cnc3ccccc23)c(C)c1 [I-159],90 to 100%,70 to 79%,–,–,–,–,–
3.38,Cc1ccc(C(F)(F)CNC(=O)c2c(Oc3cccc(Cl)c3F)cnc3nccnc23)c(C)c1 [I-100],–,90 to 100%,90 to 100%,90 to 100%,90 to 100%,90 to 100%,90 to 100%
4.12,O=C(NCC(F)(F)c1ccccc1Cl)c1c(Oc2cccc(C(F)(F)F)c2)nnc2ccccc12 [I-214],–,90 to 100%,90 to 100%,90 to 100%,90 to 100%,90 to 100%,90 to 100%

# More lines, now with the values behind:
SMILES,chromatographic logP [1],pest or weed control at 500 ppm [2],inhibition at 20 ppm [3],pest or weed control at 500 ppm [4],pest or weed control at 500 ppm [5],inhibition at 20 ppm [6],inhibition at 20 ppm [7],inhibition at 20 ppm [8]
COCc1ccc(C(F)(F)CNC(=O)c2c(Oc3cccc(C(F)(F)F)c3)nnc3ccccc23)c(Cl)c1 [I-074],4.12,–,90 to 100%,90 to 100%,90 to 100%,90 to 100%,90 to 100%,90 to 100%
Cc1cccc2c1OCC[C@@H]2NC(=O)c1c(Oc2cccc(C(F)(F)F)c2)nnc2ccccc12 (racemic) [I-082],4.07,–,90 to 100%,90 to 100%,90 to 100%,90 to 100%,90 to 100%,90 to 100%
CC(=O)c1ccc(C(F)(F)CNC(=O)c2c(Oc3cccc(C(F)(F)F)c3)nnc3ccccc23)c(Cl)c1 [I-069],3.84,–,70 to 79%,90 to 100%,90 to 100%,80 to 89%,90 to 100%,90 to 100%
Cc1ccc(C(F)(F)CNC(=O)c2c(Oc3cccc(C(F)(F)F)c3)nnc3cc(C)ccc23)c(C)c1 [I-044],4.45,80 to 89%,90 to 100%,90 to 100%,–,90 to 100%,–,–
O=C(NCCc1ccc2c(c1)OCO2)c1c(Oc2cccc(C(F)(F)F)c2)nnc2ccccc12 [I-092],3.45,–,90 to 100%,90 to 100%,90 to 100%,90 to 100%,90 to 100%,90 to 100%
Cc1ccc2c(c1)[C@@H](NC(=O)c1c(Oc3cccc(C(F)(F)F)c3)nnc3ccccc13)COC2 (racemic) [I-083],3.73,–,90 to 100%,90 to 100%,90 to 100%,80 to 89%,90 to 100%,90 to 100%
Cc1scc(CCNC(=O)c2c(Oc3cccc(C(F)(F)F)c3)nnc3ccccc23)c1C [I-093],4.11,–,90 to 100%,90 to 100%,90 to 100%,70 to 79%,90 to 100%,90 to 100%
